Values of other authors, collected in patent US20100249031A1, “Nutritional Composition Comprising Curcuminoids and Methods of Manufacture” (priority 2009, published 2010).

How the values were obtained:
[1] = percentage of ingested curcuminoid metabolized by the body
Microtubule Assembly = conditions: @ 40 μM

Row | SMILES | Metabolic Recovery [1] | Inhibition of Microtubule Assembly (Microtubule Assembly)
1 | O=C(/C=C/c1ccc(O)cc1)CC(=O)/C=C/c1ccc(O)cc1 [BDMC, bisdemethoxycurcumin] | ~75% | 
2 | COc1cc(/C=C/C(=O)CC(=O)/C=C/c2ccc(O)c(OC)c2)ccc1O [Curcumin, curcumin] |  | 50% @
3 | COc1cc(/C=C/C(O)=C/C(=O)/C=C/c2ccc(O)cc2)ccc1O [DMC, demethoxycurcumin] | ~50% | 
